From US20250206730A1 (AUTOTELIC BIO INC., priority 2022, published 2025)

How the values were obtained:
TGF-β signaling = assay: Assay for evaluating cellular inhibition of TGF-β signaling, HEK293 (SBE reporter) luciferase reporter; type: cell-based; settings: Homo sapiens; HEK293 (SBE reporter) stable cells, 0.5% FBS, 2 h pre-treatment, TGF-β1 2 ng/mL 24 h; read-out: IC50 HEK 293 Cell
Description: [Example 2] Assay for Evaluating Cellular Inhibition of TGF-β Signaling
4T1 (SBE-luc2P) transient pool that have SBE-luc2P (hygro) expression plasmid or HEK293 (SBE reporter) stable cells (BPS bioscience) were seeded at 6×10^3 cells/well or 2.5×10^4 cells/well in 96-well plate, respectively. 4T1 (SBE-luc2P) transient pool were pre-treated with novel compound synthesized in Example 1 above in 0.2% FBS at approximately 60% confluence at 37° C. in 5% CO2. Also, HEK293 (SBE reporter) stable cells were pre-treated with each test compounds of formula in 0.5% FBS at approximately 80% confluence at 37° C. in 5% CO2. After 2 hours, cells were treated with TGF-β1 (2 ng/mL) for 24 h at 37° C. in 5% CO2. Cell lysates were prepared using Luciferase Assay (Promega) according to the manufacturer's instruction, and luminescence was measured by a plate reader, Biotek Synergy H1 (Vermont, USA).

ALK5 kinase = molecular target: T1, ALK5 kinase (Homo sapiens, UniProt P36897); assay: LanthaScreen Eu Kinase Binding Assay; settings: Kinase Tracer 178, Eu-anti-GST Antibody, read-out: IC50 Enzyme
T1 sequence (P36897 34-503): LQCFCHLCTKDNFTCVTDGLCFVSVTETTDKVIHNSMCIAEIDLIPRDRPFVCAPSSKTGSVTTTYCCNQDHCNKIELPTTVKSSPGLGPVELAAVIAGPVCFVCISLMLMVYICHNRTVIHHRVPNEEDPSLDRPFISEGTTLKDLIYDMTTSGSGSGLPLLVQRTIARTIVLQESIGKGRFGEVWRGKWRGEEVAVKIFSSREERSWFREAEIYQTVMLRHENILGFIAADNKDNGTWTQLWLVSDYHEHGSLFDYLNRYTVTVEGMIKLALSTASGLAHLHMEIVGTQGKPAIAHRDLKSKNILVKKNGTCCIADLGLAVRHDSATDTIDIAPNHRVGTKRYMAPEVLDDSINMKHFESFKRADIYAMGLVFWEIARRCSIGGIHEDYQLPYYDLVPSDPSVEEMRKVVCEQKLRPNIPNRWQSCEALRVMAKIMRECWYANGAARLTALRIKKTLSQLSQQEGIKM
Summary of the method: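 Compound (1% DMSO final) preincubated 30 min at RT with GST-tagged ALK5, then Eu-anti-GST antibody and Kinase Tracer 178 added for 60 min at RT. TR-FRET read at 340 nm excitation; 665/615 nm emission ratio falls as compound binding rises.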

With `O=C(O)c1ccc(Nc2cc(Oc3oc(C4CC4)nc3-c3ccccc3)ccn2)cc1` [A-295, 4-((4-((2-Cyclopropyl-4-phenyloxazol-5-yl)oxy)pyridin-2-yl)amino)benzoic acid] the IC50 (TGF-β signaling) was < 100 nM and the IC50 (ALK5 kinase) was < 100 nM.
